# Results reported in ChEMBL document CHEMBL1155508, “Discovery of TRPV1 antagonist ABT-116” (Bioorg Med Chem Lett, 2010).
# Assays:
# [1] = target: T1, Transient receptor potential cation channel subfamily V member 1 (Homo sapiens, UniProt Q8NER1); experiment: Antagonist activity at human TRPV1; type: functional
# Rattus norvegicus [2] = experiment: Antiinflammatory activity against complete Freund's adjuvant-induced thermal hyperalgesia in po dosed rat; type: functional
# [3] = Ratio of drug level in brain to plasma in rat at 10 µmol/kg, po; conditions: read-out: BPR
# [4] = target: T1, Transient receptor potential cation channel subfamily V member 1; experiment: Antagonist activity at human TRPV1 expressed in HEK293 cells assessed as inhibition of capsaicin-induced effect by capsaicin
# Rattus norvegicus [5] = experiment: Antiinflammatory activity in rat post operative pain model assessed as reduction in pain in rat at 100 umol/kg, po single dose; design: scale not given: the % may be the effect or the level left
# [6] = Solubility in lipid; type: physicochemical
# [7] = Half life in rat at 10 µmol/kg, po; conditions: in vivo
# Rattus norvegicus [8] = experiment: Antiinflammatory activity in rat osteoarthritis model assessed as inhibition of thermal hyperalgesia in po dosed rat; type: functional
# Rattus norvegicus [9] = experiment: Plasma clearance in rat at 10 µmol/kg, po; conditions: in vivo
# [10] = target: T1, Transient receptor potential cation channel subfamily V member 1; experiment: Antagonist activity at human TRPV1 expressed in HEK293 cells assessed as inhibition of N-arachidonoyl-dopamine-induced effect; type: functional, cell-based
# Rattus norvegicus [11] = experiment: Antiinflammatory activity in rat osteoarthritis model assessed as reduction of pain in rat at 10 umol/kg, po single dose; design: scale not given: the % may be the effect or the level left
# CYP3A4 = CYP3A4 (Homo sapiens, UniProt P08684); experiment: Inhibition of CYP3A4 assessed as midazolam oxidation at 10 uM; type: ADME; conditions: probe midazolam
# Chain of CYP3A4 (P08684 whole entry): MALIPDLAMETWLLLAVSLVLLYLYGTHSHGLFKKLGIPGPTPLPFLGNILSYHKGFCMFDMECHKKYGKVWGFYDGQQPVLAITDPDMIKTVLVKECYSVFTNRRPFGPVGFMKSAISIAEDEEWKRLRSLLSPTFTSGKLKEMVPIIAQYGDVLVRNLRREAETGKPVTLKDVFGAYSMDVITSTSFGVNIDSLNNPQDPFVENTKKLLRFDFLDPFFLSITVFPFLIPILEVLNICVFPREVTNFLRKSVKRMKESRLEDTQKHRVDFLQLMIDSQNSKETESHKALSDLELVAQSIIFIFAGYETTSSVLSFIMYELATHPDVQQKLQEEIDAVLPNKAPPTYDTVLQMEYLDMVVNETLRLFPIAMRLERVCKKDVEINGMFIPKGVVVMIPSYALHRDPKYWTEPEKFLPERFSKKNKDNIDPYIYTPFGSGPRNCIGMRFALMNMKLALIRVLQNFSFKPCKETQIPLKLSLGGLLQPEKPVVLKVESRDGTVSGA
# [12] = Aqueous solubility of the compound; type: physicochemical
# [13] = target: Transient receptor potential cation channel subfamily V member 1 (Rattus norvegicus, UniProt O35433); experiment: Antagonist activity at rat TRPV1 assessed as inhibition of capsaicin-induced effect; type: functional
# Chain of Transient receptor potential cation channel subfamily V member 1 (Rattus norvegicus, UniProt O35433) (O35433 whole entry): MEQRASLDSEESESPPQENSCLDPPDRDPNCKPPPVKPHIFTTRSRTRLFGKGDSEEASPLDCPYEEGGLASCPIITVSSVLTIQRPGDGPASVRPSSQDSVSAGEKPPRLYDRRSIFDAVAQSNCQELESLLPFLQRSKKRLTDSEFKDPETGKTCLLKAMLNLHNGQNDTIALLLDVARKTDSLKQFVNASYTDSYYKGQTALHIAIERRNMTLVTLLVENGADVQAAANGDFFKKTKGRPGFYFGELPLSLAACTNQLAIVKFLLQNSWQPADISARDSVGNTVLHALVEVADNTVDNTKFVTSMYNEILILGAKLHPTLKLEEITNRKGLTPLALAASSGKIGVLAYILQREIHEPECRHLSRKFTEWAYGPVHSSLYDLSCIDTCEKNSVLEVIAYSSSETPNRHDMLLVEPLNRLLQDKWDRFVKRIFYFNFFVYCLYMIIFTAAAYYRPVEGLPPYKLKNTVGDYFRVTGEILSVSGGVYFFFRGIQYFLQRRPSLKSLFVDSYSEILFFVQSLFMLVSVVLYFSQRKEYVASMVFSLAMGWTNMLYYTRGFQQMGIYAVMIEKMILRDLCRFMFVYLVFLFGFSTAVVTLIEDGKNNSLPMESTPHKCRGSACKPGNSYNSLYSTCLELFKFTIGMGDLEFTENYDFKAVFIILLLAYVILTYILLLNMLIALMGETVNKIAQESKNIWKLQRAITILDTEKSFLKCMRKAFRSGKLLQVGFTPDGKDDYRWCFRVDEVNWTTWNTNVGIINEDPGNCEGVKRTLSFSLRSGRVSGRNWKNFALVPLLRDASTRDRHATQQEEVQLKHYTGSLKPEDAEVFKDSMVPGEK
# Rattus norvegicus [14] = experiment: Volume of distribution at steady state in rat at 10 µmol/kg, po; conditions: in vivo
# Rattus norvegicus [15] = experiment: Toxicity in rat assessed as increase of body temperature at 100 umol/kg, po after 1 hr; type: organism-based; conditions: in vivo
# Rattus norvegicus [16] = experiment: Antiinflammatory activity in rat osteoarthritis model assessed as reduction of pain in rat at 10 umol/kg, po bid measured after 12 days; type: functional; design: scale not given: the % may be the effect or the level left
# Rattus norvegicus [17] = experiment: Antiinflammatory activity against carrageenan-induced thermal hyperalgesia in po dosed rat; type: functional
# [18] = Cmax in rat at 10 µmol/kg, po; conditions: in vivo
# [19] = Oral bioavailability in rat at 10 µmol/kg; conditions: in vivo
# [20] = Solubility in PEG-400; type: physicochemical
# [21] = Genotoxicity in Salmonella Typhimurium by Ames test; type: toxicity; conditions: salmonella enterica subsp. enterica serovar typhimurium
# Cytochrome P450 3A4 = Cytochrome P450 3A4 (Homo sapiens, UniProt P08684); experiment: Inhibition of CYP3A4; type: ADME; conditions: TDE = time-dependent effect
# Chain of Cytochrome P450 3A4 (P08684 whole entry): as the sequence (P08684 whole entry) above
# [22] = Terminal phase volume of distribution at steady state in iv dosed rat; type: ADME, organism-based; conditions: in vivo, read-out: Vbeta
# [23] = Plasma clearance in iv dosed rat; type: ADME, organism-based
# T1 sequence (Q8NER1 whole entry): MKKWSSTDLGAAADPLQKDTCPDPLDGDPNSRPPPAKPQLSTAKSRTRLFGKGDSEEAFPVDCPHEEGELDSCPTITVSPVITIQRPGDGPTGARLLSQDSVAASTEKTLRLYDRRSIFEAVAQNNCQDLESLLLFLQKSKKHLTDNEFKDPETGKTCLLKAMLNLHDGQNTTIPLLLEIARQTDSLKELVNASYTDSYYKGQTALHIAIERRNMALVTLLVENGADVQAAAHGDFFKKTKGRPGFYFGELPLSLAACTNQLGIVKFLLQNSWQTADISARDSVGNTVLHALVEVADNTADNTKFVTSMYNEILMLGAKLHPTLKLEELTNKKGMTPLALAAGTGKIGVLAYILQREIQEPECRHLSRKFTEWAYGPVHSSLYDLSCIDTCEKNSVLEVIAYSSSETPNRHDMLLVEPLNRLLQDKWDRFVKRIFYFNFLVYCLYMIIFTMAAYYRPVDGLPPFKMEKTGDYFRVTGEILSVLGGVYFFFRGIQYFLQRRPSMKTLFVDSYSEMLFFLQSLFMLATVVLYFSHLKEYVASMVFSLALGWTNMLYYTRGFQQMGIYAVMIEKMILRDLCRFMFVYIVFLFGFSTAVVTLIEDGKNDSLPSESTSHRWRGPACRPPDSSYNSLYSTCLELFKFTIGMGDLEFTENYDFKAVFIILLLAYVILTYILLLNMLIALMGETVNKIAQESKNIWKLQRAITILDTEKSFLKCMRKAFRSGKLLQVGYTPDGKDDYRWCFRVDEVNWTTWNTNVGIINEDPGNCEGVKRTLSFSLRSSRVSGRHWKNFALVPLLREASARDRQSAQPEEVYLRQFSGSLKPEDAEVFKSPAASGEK
structure (smiles),measurement,setting,value
O=C(NCc1ccc(C(F)(F)F)nc1N1CCOCC1)Nc1cccc2[nH]ncc12,IC50,[1],12 nM
same,ED50,Rattus norvegicus [2],33 µmol/kg
Cc1ccc(CNC(=O)Nc2cccc3[nH]ncc23)c(N2CCOCC2)n1,IC50,[1],125 nM
O=C(NCc1ccc(C(F)(F)F)cc1CCc1ccccc1)Nc1cccc2[nH]ncc12,IC50,[1],8 nM
same,ED50,Rattus norvegicus [2],30 µmol/kg
O=C(NCc1ccc(C(F)(F)F)cc1Oc1ccccc1)Nc1cccc2[nH]ncc12,IC50,[1],9 nM
same,ED50,Rattus norvegicus [2],22 µmol/kg
O=C(NCc1ccc(C(F)(F)F)nc1N1CCCCC1)Nc1cccc2[nH]ncc12,IC50,[1],3.5 nM
same,ED50,Rattus norvegicus [2],30 µmol/kg
Cc1ccc(CNC(=O)Nc2cccc3[nH]ncc23)c(N2CCCCC2)n1,IC50,[1],16 nM
same,ED50,Rattus norvegicus [2],53 µmol/kg
CC(C)(C)CCc1nc(C(F)(F)F)ccc1CNC(=O)Nc1cccc2[nH]ncc12,IC50,[1],5 nM
same,ED50,Rattus norvegicus [2],100 µmol/kg
COCCCc1cc(C(F)(F)F)ccc1CNC(=O)Nc1cccc2[nH]ncc12,IC50,[1],8 nM
CC(C)(C)COc1nc(C(F)(F)F)ccc1CNC(=O)Nc1cccc2[nH]ncc12,IC50,[1],6 nM
same,ED50,Rattus norvegicus [2],> 100 µmol/kg
same,Kp,[3],0.02
CCn1ncc2c(NC(=O)NCc3ccc(C(F)(F)F)cc3CCC(C)(C)C)cccc21,IC50,[4],53 nM
CC(C)n1ncc2c(NC(=O)NCc3ccc(C(F)(F)F)cc3CCC(C)(C)C)cccc21,IC50,[4],69 nM
Cn1ncc2c(NC(=O)NCc3ccc(C(F)(F)F)cc3CCC(C)(C)C)cccc21,Activity,Rattus norvegicus [5],45%
same,solubility,[6],> 67 µg/mL
same,half-life,[7],3.1 h
same,ED50,Rattus norvegicus [8],66 µmol/kg
same,clearance,Rattus norvegicus [9],13.3 mL/min/kg
same,IC50,[10],15 nM
same,Activity,Rattus norvegicus [11],20%
same,inhibition at 10 µM,CYP3A4,10%
same,IC50,[4],7 nM
same,solubility,[12],< 0.01 µg/mL
same,IC50,[13],277 nM
same,Vdss,Rattus norvegicus [14],3.4 L/kg
same,T,Rattus norvegicus [15],0.9 °C
same,Kp,[3],0.32
same,Activity,Rattus norvegicus [16],67%
same,ED50,Rattus norvegicus [17],25 µmol/kg
same,Cmax,[18],140 ng/mL
same,bioavailability,[19],58%
O=C(NCc1ccc(C(F)(F)F)nc1)Nc1cccc2[nH]ncc12,IC50,[1],184 nM
same,ED50,Rattus norvegicus [2],81 µmol/kg
O=C(NCc1ccc(C(F)(F)F)nc1Oc1ccccc1)Nc1cccc2[nH]ncc12,IC50,[1],9 nM
same,ED50,Rattus norvegicus [2],30 µmol/kg
COCCOc1nc(C(F)(F)F)ccc1CNC(=O)Nc1cccc2[nH]ncc12,IC50,[1],18 nM
COCCCc1nc(C(F)(F)F)ccc1CNC(=O)Nc1cccc2[nH]ncc12,IC50,[1],12 nM
same,ED50,Rattus norvegicus [2],> 30 µmol/kg
CC(C)c1cc(C(F)(F)F)ccc1CNC(=O)Nc1cccc2[nH]ncc12,IC50,[1],9 nM
same,ED50,Rattus norvegicus [2],14 µmol/kg
CC(C)(F)CCc1cc(C(F)(F)F)ccc1CNC(=O)Nc1cccc2[nH]ncc12,IC50,[1],6 nM
same,ED50,Rattus norvegicus [2],58 µmol/kg
CC(C)(C)CCc1cc(C(F)(F)F)ccc1CNC(=O)Nc1cccc2[nH]ncc12,half-life,[7],4.3 h
same,ED50,Rattus norvegicus [8],71 µmol/kg
same,IC50,[1],4.3 nM
same,inhibition at 10 µM,CYP3A4,86%
same,solubility,[20],> 100 µg/mL
same,Activity,[21],Non-toxic
same,inhibition (INH),Cytochrome P450 3A4,tde
same,solubility,[12],0.42 µg/mL
same,ED50,Rattus norvegicus [2],15 µmol/kg
same,Kp,[3],0.45
same,Vd,[22],5.4 L/kg
same,clearance,[23],20 mL/min/kg
same,ED50,Rattus norvegicus [17],7 µmol/kg
same,bioavailability,[19],35%
O=C(NCc1ccc(-c2ccccc2)nc1N1CCCCC1)Nc1cccc2[nH]ncc12,IC50,[1],14 nM
same,ED50,Rattus norvegicus [2],37 µmol/kg
CC(C)(C)c1ccc2c(c1)CC[C@H]2NC(=O)Nc1cccc2[nH]ncc12 [ABT-102],Kp,[3],0.32
